Some targets named below: PIK3CA(Q546K) (Homo sapiens, UniProt P42336, Q546K); PRKCH (Homo sapiens, UniProt P24723); GSK3B (Homo sapiens, UniProt P49841); IGF1R (Homo sapiens, UniProt P08069); AURKC (Homo sapiens, UniProt Q9UQB9); ERBB3 (Homo sapiens, UniProt P21860); NEK6 (Homo sapiens, UniProt Q9HC98); GRK3 (Homo sapiens, UniProt P35626); NEK7 (Homo sapiens, UniProt Q8TDX7); NLK (Homo sapiens, UniProt Q9UBE8); WNK4 (Homo sapiens, UniProt Q96J92); FGFR2 (Homo sapiens, UniProt P21802); PIK3CA(H1047Y) (Homo sapiens, UniProt P42336, H1047Y); EPHB2 (Homo sapiens, UniProt P29323); KIT(D816H) (Homo sapiens, UniProt P10721, D816H); LIMK1 (Homo sapiens, UniProt P53667).

Common to all, as to test: biochemical
What all share (design): DiscoverX kinase panel, active-site competition binding (KINOMEscan type), percent of control at one concentration
Holding throughout (conditions): competition binding, percent of control

In the next assay the target is T1, CDC2L1 (Homo sapiens, UniProt P21127).
T1 construct: gene CDK11B

In the next assay the target is T2, TAK1 (Homo sapiens, UniProt O43318).
T2 construct: gene MAP3K7
T2 sequence (O43318 whole entry): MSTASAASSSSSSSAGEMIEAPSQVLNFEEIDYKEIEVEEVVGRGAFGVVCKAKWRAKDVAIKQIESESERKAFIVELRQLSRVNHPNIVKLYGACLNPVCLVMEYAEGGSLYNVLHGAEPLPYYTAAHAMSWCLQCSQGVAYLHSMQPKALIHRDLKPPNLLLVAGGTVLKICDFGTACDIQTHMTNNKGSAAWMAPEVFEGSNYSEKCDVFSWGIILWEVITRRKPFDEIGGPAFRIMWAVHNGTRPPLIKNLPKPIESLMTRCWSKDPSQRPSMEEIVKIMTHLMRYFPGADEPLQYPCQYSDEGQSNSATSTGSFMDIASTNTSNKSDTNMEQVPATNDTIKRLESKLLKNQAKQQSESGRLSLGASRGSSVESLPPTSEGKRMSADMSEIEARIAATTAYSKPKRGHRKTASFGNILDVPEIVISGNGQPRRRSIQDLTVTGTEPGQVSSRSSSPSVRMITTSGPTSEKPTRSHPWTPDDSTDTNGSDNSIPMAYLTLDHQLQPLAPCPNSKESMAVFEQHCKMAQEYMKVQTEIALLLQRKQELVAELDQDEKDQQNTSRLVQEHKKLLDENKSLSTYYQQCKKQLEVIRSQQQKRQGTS

Assay [1] addresses T3, JAK2(JH1domain-catalytic) (Homo sapiens, UniProt O60674).
T3 construct: JH1domain-catalytic

The next assay has as its target T4, DCAMKL3 (Homo sapiens, UniProt Q9C098).
T4 construct: gene DCLK3

A further assay has as its target T5, SIK (Homo sapiens, UniProt P57059).
T5 construct: gene SIK1

PIK3CA(H1047Y), sequence (P42336 whole entry H1047Y): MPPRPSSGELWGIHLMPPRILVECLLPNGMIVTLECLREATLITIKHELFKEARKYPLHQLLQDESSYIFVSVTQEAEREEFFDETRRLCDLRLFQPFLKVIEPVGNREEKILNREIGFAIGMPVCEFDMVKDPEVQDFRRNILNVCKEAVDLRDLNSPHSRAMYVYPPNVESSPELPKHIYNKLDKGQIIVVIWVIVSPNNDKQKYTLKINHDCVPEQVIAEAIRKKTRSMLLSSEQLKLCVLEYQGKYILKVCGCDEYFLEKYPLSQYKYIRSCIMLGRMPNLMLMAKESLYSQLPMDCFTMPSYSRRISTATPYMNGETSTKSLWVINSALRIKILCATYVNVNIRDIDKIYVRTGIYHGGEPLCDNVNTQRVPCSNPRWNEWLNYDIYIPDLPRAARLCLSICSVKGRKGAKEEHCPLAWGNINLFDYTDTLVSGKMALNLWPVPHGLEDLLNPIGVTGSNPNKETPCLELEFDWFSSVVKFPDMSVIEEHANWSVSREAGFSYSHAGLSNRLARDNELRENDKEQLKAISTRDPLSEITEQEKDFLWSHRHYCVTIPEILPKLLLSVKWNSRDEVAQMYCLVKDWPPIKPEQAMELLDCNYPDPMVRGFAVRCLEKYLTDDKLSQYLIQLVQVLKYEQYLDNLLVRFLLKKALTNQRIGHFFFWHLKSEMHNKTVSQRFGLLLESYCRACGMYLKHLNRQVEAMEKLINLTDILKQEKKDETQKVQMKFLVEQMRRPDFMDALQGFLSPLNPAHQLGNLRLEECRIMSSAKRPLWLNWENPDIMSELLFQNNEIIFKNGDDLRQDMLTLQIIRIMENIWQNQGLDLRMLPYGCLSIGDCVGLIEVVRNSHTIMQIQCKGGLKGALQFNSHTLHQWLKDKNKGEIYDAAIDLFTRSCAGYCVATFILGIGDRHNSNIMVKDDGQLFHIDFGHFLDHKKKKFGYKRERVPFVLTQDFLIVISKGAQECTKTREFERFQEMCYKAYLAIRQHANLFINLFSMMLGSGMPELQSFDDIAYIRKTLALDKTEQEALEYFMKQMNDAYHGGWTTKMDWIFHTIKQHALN
T4 sequence (Q9C098 whole entry): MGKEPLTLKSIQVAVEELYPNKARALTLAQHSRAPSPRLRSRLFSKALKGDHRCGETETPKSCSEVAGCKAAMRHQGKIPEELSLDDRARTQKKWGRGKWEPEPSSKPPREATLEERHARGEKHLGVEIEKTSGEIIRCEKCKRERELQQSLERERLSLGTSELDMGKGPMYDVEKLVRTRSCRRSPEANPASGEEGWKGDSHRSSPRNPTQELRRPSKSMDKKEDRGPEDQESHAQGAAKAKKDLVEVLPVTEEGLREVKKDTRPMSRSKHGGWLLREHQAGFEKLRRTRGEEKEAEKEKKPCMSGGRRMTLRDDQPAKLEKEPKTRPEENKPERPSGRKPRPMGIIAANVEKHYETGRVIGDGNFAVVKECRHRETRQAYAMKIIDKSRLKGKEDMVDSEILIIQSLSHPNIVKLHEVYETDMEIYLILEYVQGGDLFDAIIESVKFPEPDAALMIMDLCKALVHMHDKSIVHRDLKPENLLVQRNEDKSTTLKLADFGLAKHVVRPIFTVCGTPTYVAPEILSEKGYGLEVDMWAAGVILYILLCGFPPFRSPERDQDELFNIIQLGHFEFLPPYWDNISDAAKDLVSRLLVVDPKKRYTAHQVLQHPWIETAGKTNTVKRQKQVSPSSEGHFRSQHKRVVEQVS
NLK, sequence (Q9UBE8 whole entry): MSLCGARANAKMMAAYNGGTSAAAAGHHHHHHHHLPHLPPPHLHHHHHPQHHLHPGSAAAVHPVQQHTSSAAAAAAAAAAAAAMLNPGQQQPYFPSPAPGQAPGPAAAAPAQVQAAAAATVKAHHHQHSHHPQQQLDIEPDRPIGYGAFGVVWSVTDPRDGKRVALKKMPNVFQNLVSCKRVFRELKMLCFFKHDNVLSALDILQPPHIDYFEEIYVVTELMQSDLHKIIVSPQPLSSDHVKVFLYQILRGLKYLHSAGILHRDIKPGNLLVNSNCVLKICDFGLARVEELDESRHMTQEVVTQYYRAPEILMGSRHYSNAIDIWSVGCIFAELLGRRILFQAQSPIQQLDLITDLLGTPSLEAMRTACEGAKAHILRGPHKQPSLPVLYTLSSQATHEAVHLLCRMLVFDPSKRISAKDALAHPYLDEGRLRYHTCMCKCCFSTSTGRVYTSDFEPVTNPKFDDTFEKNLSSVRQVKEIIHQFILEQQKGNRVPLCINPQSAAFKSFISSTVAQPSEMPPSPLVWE
GSK3B, sequence (P49841 whole entry): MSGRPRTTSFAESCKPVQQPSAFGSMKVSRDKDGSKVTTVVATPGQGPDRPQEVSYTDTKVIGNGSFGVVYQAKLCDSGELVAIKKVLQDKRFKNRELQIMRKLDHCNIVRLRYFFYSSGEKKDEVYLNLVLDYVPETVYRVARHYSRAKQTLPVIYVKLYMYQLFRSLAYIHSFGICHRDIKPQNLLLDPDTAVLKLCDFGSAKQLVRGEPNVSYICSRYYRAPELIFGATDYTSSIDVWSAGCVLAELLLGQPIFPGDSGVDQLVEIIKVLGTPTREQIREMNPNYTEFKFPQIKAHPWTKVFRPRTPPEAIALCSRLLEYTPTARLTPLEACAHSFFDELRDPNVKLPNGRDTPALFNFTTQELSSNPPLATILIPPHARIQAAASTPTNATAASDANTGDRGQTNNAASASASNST
EPHB2, sequence (P29323 whole entry): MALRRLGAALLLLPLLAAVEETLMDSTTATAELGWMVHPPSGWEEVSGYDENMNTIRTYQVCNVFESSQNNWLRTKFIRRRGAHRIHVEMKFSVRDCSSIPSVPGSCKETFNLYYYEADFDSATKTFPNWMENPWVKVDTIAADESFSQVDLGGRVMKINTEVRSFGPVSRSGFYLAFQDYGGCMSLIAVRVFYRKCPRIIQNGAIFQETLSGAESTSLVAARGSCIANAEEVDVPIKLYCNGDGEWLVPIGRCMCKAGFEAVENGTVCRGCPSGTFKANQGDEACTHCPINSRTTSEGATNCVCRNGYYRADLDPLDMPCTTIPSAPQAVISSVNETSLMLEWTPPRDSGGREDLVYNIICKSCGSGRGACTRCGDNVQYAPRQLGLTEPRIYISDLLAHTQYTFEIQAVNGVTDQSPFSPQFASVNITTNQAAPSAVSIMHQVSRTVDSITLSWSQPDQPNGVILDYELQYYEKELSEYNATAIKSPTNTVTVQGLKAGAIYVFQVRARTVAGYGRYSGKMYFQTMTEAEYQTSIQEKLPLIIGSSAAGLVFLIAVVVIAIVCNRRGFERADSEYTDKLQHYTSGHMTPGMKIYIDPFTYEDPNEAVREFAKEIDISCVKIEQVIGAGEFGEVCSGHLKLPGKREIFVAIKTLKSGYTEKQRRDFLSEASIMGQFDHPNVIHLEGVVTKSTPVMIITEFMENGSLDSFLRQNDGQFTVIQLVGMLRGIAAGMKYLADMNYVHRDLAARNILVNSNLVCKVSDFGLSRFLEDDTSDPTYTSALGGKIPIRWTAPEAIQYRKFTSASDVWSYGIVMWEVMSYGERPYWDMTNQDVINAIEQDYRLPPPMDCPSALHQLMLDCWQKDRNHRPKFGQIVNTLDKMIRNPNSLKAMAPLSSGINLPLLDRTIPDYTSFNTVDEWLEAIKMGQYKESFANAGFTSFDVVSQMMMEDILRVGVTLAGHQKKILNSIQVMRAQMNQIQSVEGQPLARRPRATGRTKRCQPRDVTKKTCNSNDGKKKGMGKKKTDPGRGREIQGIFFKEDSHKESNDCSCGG
GRK3, sequence (P35626 whole entry): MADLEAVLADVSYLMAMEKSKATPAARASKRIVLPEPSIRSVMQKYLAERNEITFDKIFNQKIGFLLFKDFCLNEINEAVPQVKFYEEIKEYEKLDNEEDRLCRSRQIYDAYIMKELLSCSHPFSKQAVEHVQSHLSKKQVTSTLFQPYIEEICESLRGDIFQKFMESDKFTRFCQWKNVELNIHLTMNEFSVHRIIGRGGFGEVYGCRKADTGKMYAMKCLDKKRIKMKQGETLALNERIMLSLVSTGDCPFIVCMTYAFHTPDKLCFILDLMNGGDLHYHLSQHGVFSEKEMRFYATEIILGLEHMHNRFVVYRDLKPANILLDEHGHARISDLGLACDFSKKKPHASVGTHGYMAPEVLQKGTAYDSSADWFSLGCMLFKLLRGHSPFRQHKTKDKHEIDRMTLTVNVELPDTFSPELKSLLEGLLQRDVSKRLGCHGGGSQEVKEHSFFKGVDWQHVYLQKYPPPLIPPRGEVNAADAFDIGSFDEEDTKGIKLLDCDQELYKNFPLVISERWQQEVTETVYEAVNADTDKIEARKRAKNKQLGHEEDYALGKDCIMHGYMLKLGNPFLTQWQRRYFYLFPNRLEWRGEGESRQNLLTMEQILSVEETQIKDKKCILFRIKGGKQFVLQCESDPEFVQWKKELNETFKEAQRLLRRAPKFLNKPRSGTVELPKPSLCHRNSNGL
PIK3CA(Q546K), sequence (P42336 whole entry Q546K): as the sequence (P42336 whole entry H1047Y) above, with Q546K, Y1047H counted along it

`COc1cc2c(cn1)N(C)C(=O)[C@@H](NC(=O)c1nc3n(n1)[C@H](c1ccccc1)CC3)CC2` [GNE684, (S)-N-((S)-7-methoxy-1-methyl-2-oxo-2,3,4,5-tetrahydro-1H-pyrido[3,4-b]azepin-3-yl)-5-phenyl-6,7-dihydro-5H-pyrrolo[1,2-b][1,2,4]triazole-2-carboxamide]: the remaining binding at 10 µM turned out to be 49% on PIK3CA(Q546K); 89% at PRKCH; 100% at CDC2L1; 96% on GSK3B; 87% at IGF1R; 93% on AURKC. The remaining binding at 10 µM is 96% at ERBB3; 85% at NEK6; 100% at TAK1; 100% at GRK3; 97% on NEK7; 100% in [1]. In addition, the remaining binding at 10 µM on DCAMKL3 came out at 92%; on NLK, 94%; on WNK4, 100%; on SIK, 100%; on FGFR2 it was 99%; on PIK3CA(H1047Y), 93%. In addition, the values for the remaining binding at 10 µM on EPHB2, at KIT(D816H) and on LIMK1 were 82%, 100% and 96%, respectively.

Values taken from publication PMC7206119, “RIP1 inhibition blocks inflammatory diseases but not tumor growth or metastases” (Cell Death and Differentiation, 2019).
